The assay deals with T1, Bax inhibitor-1 (BI-1) (Homo sapiens, UniProt P55061).
T1 construct: gene TMBIM6
Kind of assay: SPR (Biacore T200, BI-1 immobilised on CM5 chip, kinetic […] fit). It counts as binding.

As a reminder, the Kd is the constant that tells how readily two partners part at equilibrium. Lower therefore signals tighter binding.

T1 sequence (P55061 whole entry): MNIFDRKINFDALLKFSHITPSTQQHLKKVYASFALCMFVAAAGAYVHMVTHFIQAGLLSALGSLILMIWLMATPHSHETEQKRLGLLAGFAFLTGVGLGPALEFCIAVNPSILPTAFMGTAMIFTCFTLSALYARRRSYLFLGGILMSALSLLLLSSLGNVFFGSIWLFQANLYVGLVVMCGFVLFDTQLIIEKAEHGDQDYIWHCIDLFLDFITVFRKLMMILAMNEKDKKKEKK

Turning to `C#CCOc1cc(O)c2c(=O)c(OCCOCCOCCOCC(=O)NCCCCCC(=O)Nc3cccc4c3CN(C3CCC(=O)NC3=O)C4=O)c(-c3ccc(OC)cc3)oc2c1CC=C(C)C` (stereo not shown) [compound 10, LJ-41], the affinity, expressed as Kd, was 79.7 µM.

Values taken from publication PMC11641208, “Advanced PROTAC and Quantitative Proteomics Strategy Reveals Bax Inhibitor-1 as a Critical Target of Icaritin in Burkitt Lymphoma” (International Journal of Molecular Sciences, 2024).
